Here are results for 1 sequence from article PMC4206519, “Lack of Renoprotective Effect of Chronic Intravenous Angiotensin-(1-7) or Angiotensin-(2-10) in a Rat Model of Focal Segmental Glomerulosclerosis” (PLoS ONE, 2014).

Where no end group is shown, it is not given here.

One series has as its target T1, AT1a receptor (Rattus norvegicus, UniProt P25095).
T1 construct: expressed in transfected cells
T1 sequence (P25095 1-359): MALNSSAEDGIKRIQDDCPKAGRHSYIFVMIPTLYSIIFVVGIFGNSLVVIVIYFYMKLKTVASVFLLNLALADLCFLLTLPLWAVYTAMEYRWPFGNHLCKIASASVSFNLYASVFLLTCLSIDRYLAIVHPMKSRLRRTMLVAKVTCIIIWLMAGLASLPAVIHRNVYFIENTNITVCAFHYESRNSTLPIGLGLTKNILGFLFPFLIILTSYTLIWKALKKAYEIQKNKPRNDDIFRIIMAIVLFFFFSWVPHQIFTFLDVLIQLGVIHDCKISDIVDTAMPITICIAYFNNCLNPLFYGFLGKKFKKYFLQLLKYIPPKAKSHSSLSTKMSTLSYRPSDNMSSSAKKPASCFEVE
The series can be described thus: Ang peptide radioligand binding assay, displacement of [125I]-Ang-II (AT1R/HEK). Particulars: competition with [125I]-Ang-II, HEK-293 cells stably expressing AT1a receptor, 90 min on ice, log-logit analysis; average of n studies. The method, then:
(§1) HEK-293 cells stably expressing AT1a receptor were maintained and characterized as previously described. HEK-293 cells expressing AT2 receptors were transfected with pcDNA3.1 plasmid containing human AT2 receptor DNA using Lipofectamine 2000 at 1 µg DNA/well of a six-well plate according to manufacturer's protocol (Invitrogen, Carlsbad, CA). Transfected cells were maintained in Minimal Essential Medium (MEM) containing 10% fetal bovine serum and 1% antibiotic/fungizone/antimycotic with addition of geneticin (400 µg/ml) for stable transfectants. Confluent monolayers cells were deprived of serum (0.1% bovine serum albumin) for 2–24 hours before assay. […] After 90 min of incubation on ice, cells were gently washed 3 times with ice cold 0.9% sodium chloride followed by solubilization of the cell monolayer with 0.1 N NaOH/0.1% SDS. The solubilized sample was placed into a gamma counter for determination of cell-associated radioactivity. Log-logit analysis of the obtained competition curves was performed for determination of IC50 values.

The target in a further series is T2, human AT2 receptor (Homo sapiens, UniProt P50052).
T2 construct: expressed in transfected cells
T2 sequence (P50052 1-363): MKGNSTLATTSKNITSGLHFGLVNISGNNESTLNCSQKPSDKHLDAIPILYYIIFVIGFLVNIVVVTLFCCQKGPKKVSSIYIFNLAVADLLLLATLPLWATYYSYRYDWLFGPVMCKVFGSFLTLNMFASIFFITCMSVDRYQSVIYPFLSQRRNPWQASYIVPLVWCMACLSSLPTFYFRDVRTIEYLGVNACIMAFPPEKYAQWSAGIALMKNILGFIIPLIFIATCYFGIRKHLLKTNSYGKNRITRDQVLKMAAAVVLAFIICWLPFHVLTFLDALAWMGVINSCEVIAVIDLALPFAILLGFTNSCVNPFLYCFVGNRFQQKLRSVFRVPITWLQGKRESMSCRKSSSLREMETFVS
The series can be described thus: Ang peptide radioligand binding assay, displacement of [125I]-Ang-II (AT2R/HEK). Particulars: competition with [125I]-Ang-II, HEK-293 cells stably transfected with human AT2 receptor, 90 min on ice, log-logit analysis; average of n studies. The method, then: as §1

Series [1] deals with uni-nephrectomized fawn-hooded hypertensive (FHH) rats. Particulars: late disease model. The method, then:
Male FHH rats (In-house colony established from animals obtained from Charles River Laboratories, Wilmington, MA) were housed at a certified animal facility at 22°C and a 12∶12 h light/dark cycle. […] All surgeries were performed under isoflurane anesthesia (5% induction, 2% maintenance), at 37°C, and perioperative buprenorphine.
Following anesthesia, an incision was made in the left flank; the kidney was exposed and excised after ligation of the pedicle. […] Under anesthesia, a mini-pump was placed in a subcutaneous pocket. […] Pumps were replaced once during the treatment period. For the early disease model, five groups of rats were examined. […] For the late disease model, eight groups of rats were examined. […] The dosages of the Ang peptides were selected based on previous studies where Ang-(1-7) was similarly administered using implanted osmotic mini-pumps, [16], [17], [26]. […] Systemic blood pressure was measured by tail-cuff sphygmomanometer (Natume, Japan). Animals were placed on metabolic cages for urine collection at pre-specified time points. Urinary protein excretion was measured by the method of Lowry. Urinary sodium concentration was measured by ion-selective electrodes. At sacrifice, kidneys were harvested for histological analysis and measurement of Ang peptide concentration.
Upon harvesting, kidneys were cleared of blood by transcardiac perfusion of iced-cold phosphate buffered saline, excised and fixed in 4% paraformaldehyde, embedded in paraffin and processed for microscopic examination. Kidney sections (2-µm) were stained with hematoxylin-eosin (H&E), Jones silver and Periodic Acid Schiff (PAS). Slides were reviewed by an experienced renal pathologist (S.S) in a blinded fashion. Index of glomerulosclerosis was evaluated by a semiquantitative score based on the percentage of the glomerular tuft occupied by sclerotic lesions (0: no lesions, 1: lesions affecting less than 25% of the glomerulus, 2-3-4: lesions affecting 25–50%, 50–75% and 75–100% of the glomerulus, respectively). Tubular injury was rated based on presence of tubular atrophy, microcystic tubular dilation and interstitial fibrosis, from 0 to 3 (0: none; 1: mild; 2: moderate; 3: severe).
Blood pressure data were analyzed by repeated measures ANOVA. Differences within groups were analyzed using paired t-tests adjusted with Bonferroni modification. Differences between group means at each time point were tested using one-way ANOVA followed by Tukey-Kramer post-hoc test. Urinary protein excretions were log10 transformed and tested using a two-way ANOVA for repeated measures followed by Scheffe post hoc test for differences between the groups. Untransformed 24-hour urinary protein excretions at each time point were then tested using Kruskal-Wallis test. If a significant main effect was detected then differences between groups were tested using the Mann-Whitney U test with the probability adjusted using the Bonferroni modification. Urine sodium was also assessed by two-way ANOVA for repeated measures and pairwise multiple comparisons were made using the Holm-Sidak method. Multiple comparisons of Ang peptide levels were made using ANOVA when data were normally distributed and with log10 transformation when non-normally distributed. Post-hoc pairwise comparisons were made using the Holm-Sidak method. […] For Ang peptide measurements by LC/MS/MS, only values above the LLOQ were utilized for statistical comparisons.

On to RVYIHPFHL [Ang-(2-10)], for which the IC50 is 47.8 nM at AT1a receptor and 6.6 nM on human AT2 receptor. The “demise of treated animals” value in series [1] (400 ng/kg/min iv) was 7 out of the 9. Further, in series [1] (high-dose 400 ng/kg/min iv, 12 weeks, n=9 treated), the “number of rats that survived until the end of the study” value is 2.
